Measured values reported in patent publication US20110269825A1, “Modified Thromboxane A2 Receptor Promoter Sequence” (priority 2008, published 2011).
Several values for one entry are separate records, joined by “and”; a condition that tells them apart may be missing. Identical values can stand only once.

Key:
Format in all cases: cell-based, human
[1] = tested on: WT1; test: Confocal microscopy of WT1 localization in PMA-treated HEL cells; details: PMA 100 nM, at 5 h and 8 h
Experimental: HEL 92.1.7 cells were seeded at ˜1×10^5 cells/ml in 2 ml normal growth media (RPMI 1640, 10% FBS) in 6-well plates containing Poly-L-lysine coated coverslips. Cells were grown at 37° C. for 24 h prior to incubating cells with 100 nM PMA for 0, 1, 5, 8, 16 and 24 h. Thereafter, cells were fixed in 3.4% paraformaldehyde and permeabilized with 0.2% Triton X-100 for 10 min on ice, after which cells were immunolabelled with anti-WT1 (1:1000 of 2 μg/μl stock) and AlexaFluor488 conjugated anti-rabbit, followed by counterstaining with DAPI (1 μg/ml in H2O). Images were obtained using Carl Zeiss Lazer Scanning System LSM510 and Zeiss LSM Imaging software for acquiring multi-channel images with filters appropriate for enhanced DAPI & AlexaFluor488.

[2] = tested on: Prm1-directed luciferase expression; test: Effect of PMA, PD98059 or Vitamin D3 on Prm1-directed luciferase expression in HEL cells
Experimental: HEL and EA.hy 926 cells were co-transfected with the various pGL3Basic-recombinant plasmids (2 mg), encoding firefly luciferase, along with pRL-TK (200 ng), encoding renilla luciferase, using DMRIE-C® transfection reagent. HEK293, WI-38, and 1° hAoSMCs were co-transfected with the pGL3Basic-recombinant plasmids (2 mg), along with pRL-TK (200 ng), using Effectene transfection reagent. In all cases, cells co-transfected with pRL-TK (200 ng) in the presence of either the pGL3Control vector (firefly luciferase gene under the control of the SV40 promoter; 2 mg) or the promoter-less pGL3Basic empty vector (2 mg), which served as positive and negative controls, respectively. […] Relative firefly to renilla luciferase activity (arbitrary units) was calculated as a ratio and was expressed in relative luciferase units (RLU). To investigate the effect of over-expression of exon 5 (+ or −) or KTS (+ or −) isoforms of WT1 on Prm1-directed gene expression, HEL cells were co-transfected with either pGL3b:Prm1 or pGL3b:Prm1D (1.5 μg) plus 200 ng of pRL-TK along with either pcDNA3:WT1 (+/+), pcDNA3:WT1 (+/−), pcDNA3:WT1 (−/+), pcDNA3:WT1 (−/−) (0.5 μg), or as a control, pcDNA3 (0.5 μg). […] The plasmid pCMV5-NAB1, containing the entire coding sequence for NAB1, was generously donated by Dr. Gerald Thiel, University of Saarland Medical Center, Homburg, Germany, and has been described previously (Thiel et al., 2000). To investigate the effect of over-expression of NAB1 on the PMA-mediated induction of Prm1-directed gene expression, HEL cells were transiently co-transfected with pGL3b:Prm1 (2 μg) plus pRL-TK (200 ng) along with either pCMV5 (control) or pCMV:NAB1 (1 μg).

[3] = tested on: Sp1; test: Immunoblot analysis of Sp1 expression in HEL cells; details: PMA 100 nM over 48 h
Experimental: The expression of WT1, Sp1, Egr1, NF-E2, GATA-1 and Ets-1 proteins in HEL cells was confirmed by western blot analysis. Briefly, whole cell protein was resolved by SDS-PAGE (10% acrylamide gels) and transferred to polyvinylidene difluoride (PVDF) membrane according to standard methodology. Membranes were screened using anti-WT1, anti-NF-E2, anti-Sp1, anti-Egr1, anti-GATA-1 or anti-Ets-1 sera in 5% non fat dried milk in 1×TBS (0.01 M Tris/HCl, 0.1 M NaCl) for 2 h at room temperature followed by washing and screening using goat anti-rabbit horseradish peroxidase (sc-2204) followed by chemiluminescence detection, as described by the supplier (Roche Applied Science). For PMA studies, HEL cells were pre-incubated for the indicated amount of time with 100 nM PMA, with 10 μM PD98059, with 100 nM PMA plus 10 μM PD98059 or, as a control, with vehicle [0.1% (v/v) DMSO]. Whole cell protein (60 μg per lane) was resolved by SDS-PAGE (10% acrylamide gels) and transferred to polyvinylidene difluoride (PVDF) membrane according to standard methodology. […] Cells were harvested 48 hr post-transfection and aliquots ([…]) were analysed by SDS-PAGE/western blot analysis. As a positive control for hTF expression, […] of a commercial control Tissue-Factor Biomass was also analysed. […]

CCCCCCCCCCCCCC(=O)O[C@@H]1[C@@H](C)[C@@]2(O)[C@@H](C=C(CO)C[C@]3(O)C(=O)C(C)=C[C@@H]23)[C@@H]2C(C)(C)[C@]12OC(C)=O [PMA, phorbol 12-myristate 13-acetate]
Intracellular localization of WT1 [1]: redistribution of WT1 to the cytosolic fraction
Time of incubation to significantly increased Prm1-directed luciferase activity ([2]; PMA 100 nM, 0-48 h): ≤ 4 h
Increase in Prm1-directed luciferase expression ([2]; PMA 100 nM, 16 h, vs vehicle): 4 fold and 4.3 fold
Effect on luciferase expression directed by the Prm1K sub-fragment ([2]; PMA alone 100 nM, 16 h): neither PMA alone (p=0.4721) nor PMA plus PD98059 (p=0.2693) had any significant effect
Sp1 protein expression [3]: did not result in appreciable changes in the expression of Sp1
